Reference: PubChem BioAssay (NCI)
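48-hour exposure; five concentrations; linearly interpolated endpoints. TGI marks complete inhibition of growth.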

Tests used:
Assay in all cases: NCI anticancer screen, dose series, 48 h
786-0 renal = system: 786-0 renal
A498 renal = system: A498 renal
A549 NSCLC = system: A549 NSCLC
ACHN renal = system: ACHN renal
BT-549 breast = system: BT-549 breast
CAKI-1 renal = system: CAKI-1 renal
CCRF-CEM leukemia = system: CCRF-CEM leukemia
COLO 205 colon = system: COLO 205 colon
DU-145 prostate = system: DU-145 prostate
EKVX NSCLC = system: EKVX NSCLC
HCC-2998 colon = system: HCC-2998 colon
HCT-116 colon = system: HCT-116 colon
HCT-15 colon = system: HCT-15 colon
HL-60(TB) leukemia = system: HL-60(TB) leukemia
HOP-62 NSCLC = system: HOP-62 NSCLC
HOP-92 NSCLC = system: HOP-92 NSCLC
HT29 colon = system: HT29 colon
IGROV1 ovarian = system: IGROV1 ovarian
K-562 leukemia = system: K-562 leukemia
KM12 colon = system: KM12 colon
LOX IMVI melanoma = system: LOX IMVI melanoma
M14 melanoma = system: M14 melanoma
MALME-3M melanoma = system: MALME-3M melanoma
MCF7 breast = system: MCF7 breast
MDA-MB-231 breast = system: MDA-MB-231 breast
MDA-MB-435 = system: MDA-MB-435
MDA-N = system: MDA-N
MOLT-4 leukemia = system: MOLT-4 leukemia
NCI-H226 lung = system: NCI-H226 lung
NCI-H23 lung = system: NCI-H23 lung
NCI-H460 lung = system: NCI-H460 lung
NCI-H522 lung = system: NCI-H522 lung
NCI/ADR-RES ovarian = system: NCI/ADR-RES ovarian
OVCAR-3 ovarian = system: OVCAR-3 ovarian
OVCAR-4 ovarian = system: OVCAR-4 ovarian
OVCAR-5 ovarian = system: OVCAR-5 ovarian
OVCAR-8 ovarian = system: OVCAR-8 ovarian
PC-3 prostate = system: PC-3 prostate
RXF 393 renal = system: RXF 393 renal
SF-268 CNS = system: SF-268 CNS
SF-295 CNS = system: SF-295 CNS
SF-539 CNS = system: SF-539 CNS
SK-MEL-28 melanoma = system: SK-MEL-28 melanoma
SK-OV-3 ovarian = system: SK-OV-3 ovarian
SN12C renal = system: SN12C renal
SNB-19 CNS = system: SNB-19 CNS
SNB-75 CNS = system: SNB-75 CNS
SR leukemia = system: SR leukemia
SW-620 colon = system: SW-620 colon
T-47D breast = system: T-47D breast
TK-10 renal = system: TK-10 renal
U251 CNS = system: U251 CNS
UACC-257 melanoma = system: UACC-257 melanoma
UACC-62 melanoma = system: UACC-62 melanoma
UO-31 renal = system: UO-31 renal

With COC(=O)/C=C/CCC#Cc1ccccc1C#CCC/C=C/C(=O)OC as the molecule, how does the TGI (786-0 renal) read?
The TGI was 53.2 µM.

What about the TGI (A498 renal) of the same molecule?
The TGI was greater than 100 µM.

What about the TGI (A549 NSCLC) of the same molecule?
Its TGI is greater than 100 µM.

What about the TGI (ACHN renal) of the same molecule?
Its TGI is greater than 100 µM.

And the TGI (BT-549 breast)?
The TGI was greater than 100 µM.

What about the TGI (CAKI-1 renal) of the same molecule?
The TGI was 10.1 µM.

And the TGI (CCRF-CEM leukemia)?
The TGI was 24.3 µM.

What about the TGI (COLO 205 colon) of the same molecule?
Its TGI is 42.3 µM.

And the TGI (DU-145 prostate)?
The TGI was greater than 100 µM.

And the TGI (EKVX NSCLC)?
The TGI was greater than 100 µM.

What about the TGI (HCC-2998 colon) of the same molecule?
The TGI was greater than 100 µM.

And the TGI (HCT-116 colon)?
Its TGI is greater than 100 µM.

And the TGI (HCT-15 colon)?
Its TGI is greater than 100 µM.

What about the TGI (HL-60(TB) leukemia) of the same molecule?
Its TGI is 9.63 µM.

And the TGI (HOP-62 NSCLC)?
The TGI was greater than 100 µM.

And the TGI (HOP-92 NSCLC)?
The TGI was 85.4 µM.

And the TGI (HT29 colon)?
Its TGI is 40.4 µM.

What about the TGI (IGROV1 ovarian) of the same molecule?
The TGI was 98.2 µM.

What about the TGI (K-562 leukemia) of the same molecule?
Its TGI is 4.86 µM.

What about the TGI (KM12 colon) of the same molecule?
Its TGI is greater than 100 µM.

And the TGI (LOX IMVI melanoma)?
Its TGI is 64 µM.

And the TGI (M14 melanoma)?
The TGI was greater than 100 µM.

What about the TGI (MALME-3M melanoma) of the same molecule?
Its TGI is greater than 100 µM.

What about the TGI (MCF7 breast) of the same molecule?
The TGI was greater than 100 µM.

And the TGI (MDA-MB-231 breast)?
The TGI was greater than 100 µM.

What about the TGI (MDA-MB-435) of the same molecule?
The TGI was greater than 100 µM.

And the TGI (MDA-N)?
Its TGI is greater than 100 µM.

What about the TGI (MOLT-4 leukemia) of the same molecule?
Its TGI is 10.5 µM.

And the TGI (NCI-H226 lung)?
The TGI was greater than 100 µM.

What about the TGI (NCI-H23 lung) of the same molecule?
The TGI was 42.9 µM.

What about the TGI (NCI-H460 lung) of the same molecule?
The TGI was greater than 100 µM.

And the TGI (NCI-H522 lung)?
The TGI was 18.6 µM.

And the TGI (NCI/ADR-RES ovarian)?
The TGI was 66.2 µM.

What about the TGI (OVCAR-3 ovarian) of the same molecule?
The TGI was 28.2 µM.

What about the TGI (OVCAR-4 ovarian) of the same molecule?
Its TGI is greater than 100 µM.

And the TGI (OVCAR-5 ovarian)?
The TGI was greater than 100 µM.

And the TGI (OVCAR-8 ovarian)?
Its TGI is 26 µM.

And the TGI (PC-3 prostate)?
Its TGI is greater than 100 µM.

What about the TGI (RXF 393 renal) of the same molecule?
The TGI was 27 µM.

What about the TGI (SF-268 CNS) of the same molecule?
Its TGI is greater than 100 µM.

And the TGI (SF-295 CNS)?
The TGI was greater than 100 µM.

What about the TGI (SF-539 CNS) of the same molecule?
The TGI was 30.9 µM.

And the TGI (SK-MEL-28 melanoma)?
Its TGI is greater than 100 µM.

What about the TGI (SK-OV-3 ovarian) of the same molecule?
The TGI was greater than 100 µM.

What about the TGI (SN12C renal) of the same molecule?
The TGI was 55.7 µM.

And the TGI (SNB-19 CNS)?
The TGI was greater than 100 µM.

What about the TGI (SNB-75 CNS) of the same molecule?
The TGI was 19 µM.

What about the TGI (SR leukemia) of the same molecule?
The TGI was greater than 100 µM.

What about the TGI (SW-620 colon) of the same molecule?
The TGI was greater than 100 µM.

What about the TGI (T-47D breast) of the same molecule?
The TGI was 97.9 µM.

What about the TGI (TK-10 renal) of the same molecule?
Its TGI is greater than 100 µM.

And the TGI (U251 CNS)?
Its TGI is greater than 100 µM.

And the TGI (UACC-257 melanoma)?
Its TGI is greater than 100 µM.

What about the TGI (UACC-62 melanoma) of the same molecule?
Its TGI is greater than 100 µM.

What about the TGI (UO-31 renal) of the same molecule?
The TGI was greater than 100 µM.
